Assay results as given in US6943185B2, “Use of 2-methyl-thiazolidine-2,4-dicarboxylic acid and/or physiologically compatible salts thereof for producing a medicament for treating cancers” (Trommsdorff GmbH & Co. KG, priority 2000, dated 2005).

Legend:
[1] = system: reduced glutathione (GSH) in the hepatic tissue; test: Effect of 2-MTDC on reduced glutathione (GSH) in the hepatic tissue in mice; assay type: in vivo; settings: mouse liver; for Glutathione (GSH), % of the reference value: reference 0.9% NaCl
animal tumor models = test: Animal tumor models (skin papillomas, mammary adenocarcinomas, tracheal cancer, pulmonary adenocarcinomas, colon carcinomas, bladder cancer); assay type: in vivo; settings: several animal tumor models in mouse, rat, hamster
Method: These studies were conducted in several animal tumor models. Test systems used were the mouse, the rat, and the hamster. The objects of study included skin papillomas, mammary adenocarcinomas, tracheal cancer, pulmonary adenocarcinomas as well as colon carcinomas and bladder cancer.

[2] = pulmonary cancer patients treated with epirubicin and simultaneously NAC; cited from earlier work
[3] = cited from earlier work
[4] = 2-MTDC 1.2 mmol/kg intraperitoneally, 8 hours after injection
[5] = 2-MTDC 2.4 mmol/kg intraperitoneally, 4 hours after injection

For `CC1(C(=O)O)NC(C(=O)O)CS1` (stereo not shown) [2-MTDC, 2-methyl-thiazolidine-2,4-dicarboxylic acid], the “Glutathione (GSH), % of the reference value” (shortened to “Glutathione (GSH), %”) ([1]; 2-MTDC 1.2 mmol/kg intraperitoneally, 1 hour after injection) was 117.5%, the “Glutathione (GSH), %” value ([1]; 2-MTDC 1.2 mmol/kg intraperitoneally, 4 hours after injection) was 87.2% and the “Glutathione (GSH), mean ± SD” value [1, 4] was 6.48 ± 0.67 μmol/g wet weight. For the same molecule, the “Glutathione (GSH), %” value [1, 4] was 108.5%, the “Glutathione (GSH), %” value ([1]; 2-MTDC 1.2 mmol/kg intraperitoneally, 12 hours after injection) was 112.0% and the “Glutathione (GSH), %” value ([1]; 2-MTDC 2.4 mmol/kg intraperitoneally, 1 hour after injection) was 127.6%. For the same molecule, the “Glutathione (GSH), mean ± SD” value [1, 5] was 5.76 ± 0.42 μmol/g wet weight, the “Glutathione (GSH), %” value [1, 5] was 90.3% and the “Glutathione (GSH), %” value ([1]; 2-MTDC 2.4 mmol/kg intraperitoneally, 8 hours after injection) was 112.0%. For the same molecule, the “Glutathione (GSH), %” value ([1]; 2-MTDC 2.4 mmol/kg intraperitoneally, 12 hours after injection) was 154.5% and the “Effect on the advance of cancerous diseases” value (animal tumor models) was “can slow down or even stop the advance of cancerous diseases”.
For `CC(=O)N[C@@H](CS)C(=O)O` [N-acetylcysteine], the “Effect on undesirable cardiotoxic effects of epirubicin” value [2] is listed as “undesirable cardiotoxic effects of epirubicin could be prevented”.
In the case of `CC1NC(C(=O)O)CS1` (stereo not shown), the “Stability under physiological conditions” value [3] is listed as “spontaneously decomposes into its components under physiological conditions”.
